From patent US9856242B2, “5-fluoro-N-(pyridin-2-yl)pyridin-2-amine derivatives containing a sulfone group” (Bayer Pharma Aktiengesellschaft, priority 2014, dated 2018)

What was measured:
[1] = system: Caco-2 cells; test: Proliferation assay (Method 3), Caco-2; assay type: cell-based; conditions: Caco-2, 96 h; human colorectal carcinoma, 4 days, crystal violet; read-out: Inhibition of Caco-2 cell proliferation IC50
Description: (§1) Cultivated tumour cells (HeLa, human cervical tumour cells, ATCC CCL-2; NCI-H460, human non-small cell lung carcinoma cells, ATCC HTB-177; A2780, human ovarian carcinoma cells, ECACC #93112519; DU 145, hormone-independent human prostate carcinoma cells, ATCC HTB-81; HeLa-MaTu-ADR, multidrug-resistant human cervical carcinoma cells, EPO-GmbH Berlin; Caco-2, human colorectal carcinoma cells, ATCC HTB-37; B16F10, mouse melanoma cells, ATCC CRL-6475) were plated at a density of 5,000 cells/well (DU145, HeLa-MaTu-ADR), 3,000 cells/well (NCI-H460, HeLa), 2,500 cells/well (A2780), 1,500 cells/well (Caco-2), or 1,000 cells/well (B16F10) in a 96-well multititer plate in 200 μL of their respective growth medium supplemented 10% fetal calf serum. After 24 hours, the cells of one plate (zero-point plate) were stained with crystal violet (see below), while the medium of the other plates was replaced by fresh culture medium (200 μl), to which the test substances were added in various concentrations (0 μM, as well as in the range of 0.001-10 μM; the final concentration of the solvent dimethyl sulfoxide was 0.5%). The cells were incubated for 4 days in the presence of test substances. Cell proliferation was determined by staining the cells with crystal violet: the cells were fixed by adding 20 μl/measuring point of an 11% glutaric aldehyde solution for 15 minutes at room temperature. After three washing cycles of the fixed cells with water, the plates were dried at room temperature. The cells were stained by adding 100 μl/measuring point of a 0.1% crystal violet solution (pH 3.0). After three washing cycles of the stained cells with water, the plates were dried at room temperature. The dye was dissolved by adding 100 μl/measuring point of a 10% acetic acid solution. The extinction was determined by photometry at a wavelength of 595 nm. The change of cell number, in percent, was calculated by normalization of the measured values to the extinction values of the zero-point plate (=0%) and the extinction of the untreated (0 μm) cells (=100%). The IC50 values (inhibitory concentration at 50% of maximal effect) were determined by means of a 4 parameter fit.

[2] = system: NCI-H460 cells; test: Proliferation assay (Method 3), NCI-H460; assay type: cell-based; conditions: NCI-H460, 96 h; human non-small cell lung carcinoma, 4 days, crystal violet; read-out: Inhibition of NCI-H460 cell proliferation IC50
Description: as §1

[3] = target: T1, CDK9/CycT1 (Homo sapiens, UniProt P50750); test: CDK9/CycT1 high ATP kinase assay (Method 1b, TR-FRET, 2 mM ATP); assay type: biochemical; conditions: for IC50: Method 1b, 2 mM ATP; for Selectivity high ATP CDK9/high ATP CDK2: according to Methods 1b and 2b (ratio of high ATP CDK2 IC50 to high ATP CDK9 IC50)
T1 construct: Recombinant full-length His-tagged human CDK9 and CycT1; His; purchased Invitrogen PV4131; host or cells: insect cells
T1 sequence (P50750 whole entry): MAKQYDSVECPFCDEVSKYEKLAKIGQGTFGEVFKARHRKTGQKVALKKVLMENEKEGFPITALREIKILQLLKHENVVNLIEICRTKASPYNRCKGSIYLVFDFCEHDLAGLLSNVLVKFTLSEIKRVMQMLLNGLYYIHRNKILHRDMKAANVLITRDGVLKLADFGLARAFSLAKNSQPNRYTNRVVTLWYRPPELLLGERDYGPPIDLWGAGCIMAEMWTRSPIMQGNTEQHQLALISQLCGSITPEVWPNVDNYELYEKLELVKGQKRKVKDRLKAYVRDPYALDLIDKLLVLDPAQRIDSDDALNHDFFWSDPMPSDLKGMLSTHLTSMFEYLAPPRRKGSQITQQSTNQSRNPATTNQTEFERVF
T1 sequence (O60563 whole entry partner): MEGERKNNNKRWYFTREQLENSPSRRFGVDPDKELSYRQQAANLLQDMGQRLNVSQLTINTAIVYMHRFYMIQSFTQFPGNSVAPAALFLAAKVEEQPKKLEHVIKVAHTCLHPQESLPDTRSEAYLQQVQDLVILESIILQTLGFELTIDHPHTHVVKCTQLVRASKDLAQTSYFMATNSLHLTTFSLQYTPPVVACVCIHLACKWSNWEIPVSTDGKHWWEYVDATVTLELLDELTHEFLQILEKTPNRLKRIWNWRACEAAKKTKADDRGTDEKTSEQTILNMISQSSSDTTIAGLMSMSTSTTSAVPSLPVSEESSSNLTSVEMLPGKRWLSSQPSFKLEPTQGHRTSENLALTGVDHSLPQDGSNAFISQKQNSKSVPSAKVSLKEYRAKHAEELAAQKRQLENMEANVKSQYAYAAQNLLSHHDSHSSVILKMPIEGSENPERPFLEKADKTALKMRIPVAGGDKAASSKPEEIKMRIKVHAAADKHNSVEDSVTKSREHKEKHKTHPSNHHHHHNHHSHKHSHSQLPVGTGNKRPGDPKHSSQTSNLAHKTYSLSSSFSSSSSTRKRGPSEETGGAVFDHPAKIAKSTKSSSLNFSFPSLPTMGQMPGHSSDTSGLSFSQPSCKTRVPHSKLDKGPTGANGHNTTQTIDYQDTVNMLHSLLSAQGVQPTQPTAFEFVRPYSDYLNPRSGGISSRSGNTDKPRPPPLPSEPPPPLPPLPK
Description: 1b. CDK9/CycT1 High ATP Kinase Assay
CDK9/CycT1-inhibitory activity of compounds of the present invention at a high ATP concentration after preincubation of enzyme and test compounds was quantified employing the CDK9/CycT1 TR-FRET assay as described in the following paragraphs.
Recombinant full-length His-tagged human CDK9 and CycT1, expressed in insect cells and purified by Ni-NTA affinity chromatography, were purchase from Invitrogen (Cat. No PV4131). As substrate for the kinase reaction biotinylated peptide biotin-Ttds-YISPLKSPYKISEG (C-terminus in amid form) was used which can be purchased e.g. form the company JERINI peptide technologies (Berlin, Germany). For the assay 50 n1 of a 100 fold concentrated solution of the test compound in DMSO was pipetted into a black low volume 384 well microtiter plate (Greiner Bio-One, Frickenhausen, Germany), 2 μl of a solution of CDK9/CycT1 in aqueous assay buffer [50 mM Tris/HCl pH 8.0, 10 mM MgCl2, 1.0 mM dithiothreitol, 0.1 mM sodium ortho-vanadate, 0.01% (v/v) Nonidet-P40 (Sigma)] were added and the mixture was incubated for 15 min at 22° C. to allow pre-binding of the test compounds to the enzyme before the start of the kinase reaction. Then the kinase reaction was started by the addition of 3 μl of a solution of adenosine-tri-phosphate (ATP, 3.3 mM=>final conc. in the 5 μl assay volume is 2 mM) and substrate (1.67 μM=>final conc. in the 5 μl assay volume is 1 μM) in assay buffer and the resulting mixture was incubated for a reaction time of 25 min at 22° C. The concentration of CDK9/CycT1 was adjusted depending of the activity of the enzyme lot and was chosen appropriate to have the assay in the linear range, typical concentrations were in the range of 0.5 μg/mL. The reaction was stopped by the addition of 5 μl of a solution of TR-FRET detection reagents (0.2 μM streptavidine-XL665 [Cisbio Bioassays, Codolet, France] and 1 nM anti-RB(pSer807/pSer811)-antibody from BD Pharmingen [#558389] and 1.2 nM LANCE EU-W1024 labeled anti-mouse IgG antibody [Perkin-Elmer, product no. AD0077]) in an aqueous EDTA-solution (100 mM EDTA, 0.2% (w/v) bovine serum albumin in 100 mM HEPES/NaOH pH 7.0).
The resulting mixture was incubated 1 h at 22° C. to allow the formation of complex between the phosphorylated biotinylated peptide and the detection reagents. Subsequently the amount of phosphorylated substrate was evaluated by measurement of the resonance energy transfer from the Eu-chelate to the streptavidine-XL. Therefore, the fluorescence emissions at 620 nm and 665 nm after excitation at 350 nm was measured in a HTRF reader, e.g. a Rubystar (BMG Labtechnologies, Offenburg, Germany) or a Viewlux (Perkin-Elmer). The ratio of the emissions at 665 nm and at […] was taken as the measure for the amount of phosphorylated substrate. The data were normalised (enzyme reaction without inhibitor=0% inhibition, all other assay components but no enzyme=100% inhibition).

[4] = system: HeLa cells; test: Proliferation assay (Method 3), HeLa; assay type: cell-based; conditions: 96 h, human cervical tumour, 4 days, crystal violet, read-out: Inhibition of HeLa cell proliferation IC50
Description: as §1

Row | Structure (SMILES) | IC50 [1] | IC50 [2] | IC50 [3] | Selectivity high ATP CDK9/high ATP CDK2 [3] | IC50 [4]
1 | CS(=O)(=O)Cc1ccnc(Nc2cc(-c3ccc(F)c4ccoc34)c(F)cn2)c1 [Example 1, 5-Fluoro-4-(4-fluoro-1-benzofuran-7-yl)-N-{4-[(methylsulfonyl)methyl]pyridin-2-yl}pyridin-2-amine] | 0.04 µM | 0.037 µM | 0.002 µM | 268 | 0.006 µM
2 | CS(=O)(=O)Cc1ccnc(Nc2cc(-c3cccc4ccoc34)c(F)cn2)c1 [Example 5, 4-(1-Benzofuran-7-yl)-5-fluoro-N-{4-[(methylsulfonyl)methyl]pyridin-2-yl}pyridin-2-amine] | 0.061 µM | 0.091 µM | 0.002 µM |  | 0.068 µM
3 | Cc1cc(CS(C)(=O)=O)cc(Nc2cc(-c3ccc(F)c4ccoc34)c(F)cn2)n1 [Example 3, 5-Fluoro-4-(4-fluoro-1-benzofuran-7-yl)-N-{6-methyl-4-[(methylsulfonyl)methyl]pyridin-2-yl}pyridin-2-amine] | 0.012 µM | 0.019 µM | 0.0009 µM |  | 0.012 µM
4 | CS(=O)(=O)Cc1cc(F)nc(Nc2cc(-c3ccc(F)c4ccoc34)c(F)cn2)c1 [Example 2, 5-Fluoro-4-(4-fluoro-1-benzofuran-7-yl)-N-{6-fluoro-4-[(methylsulfonyl)methyl]pyridin-2-yl}pyridin-2-amine] | 0.037 µM | 0.048 µM | 0.001 µM | 517 | 0.04 µM
5 | CS(=O)(=O)Cc1cc(Nc2cc(-c3ccc(F)c4ccoc34)c(F)cn2)nc(C(F)(F)F)c1 [Example 4, 5-Fluoro-4-(4-fluoro-1-benzofuran-7-yl)-N-{4-[(methylsulfonyl)methyl]-6-(trifluoromethyl)pyridin-2-yl}pyridin-2-amine] | 0.014 µM | 0.033 µM | 0.004 µM |  | 0.013 µM
